Assay [1] deals with ATM (Homo sapiens (Human), UniProt Q13315). Nature of the assay: ATM in Cell Western Assay (pKAP1 in etoposide-treated MCF-7 cells). The class given is cell-based. In short, it runs like this:
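After paraformaldehyde fixation and Triton X-100 permeabilization, immunostained plates were read by infrared scanning (ODYSSEY CLx). Compound was given as 10 doses, 3-fold dilutions from a 1 μM final top concentration.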

Assay [2] deals with DNA-PK (Homo sapiens (Human), UniProt P78527). Nature of the assay: DNA-PK Enzyme-Linked Immunosorbent Assay (phosphorylation of GST-p53 (1-101) peptide). Format: biochemical. The note with it: ELISA. The method in brief:
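Inhibition measured by 450 nm absorbance after HRP/TMB detection of phospho-Ser15 on immobilized GST-p53 (1-101). The kinase reaction used 0.1 μg/mL DNA-PK and 20 μM ATP, 1 h at 25 °C. Ten 3-fold compound dilutions, top final concentration 100 nM.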
For orientation: ELISA stands for enzyme-linked immunosorbent assay.

Where [3] appears, read: pKAP1 in etoposide-treated MCF-7 cells.
Setting [4] is: MCF-7 cells, etoposide 100 μM, 1 hr, pKAP1 readout.

Structures can show the parent of a compound that is named as a salt.

Chain of ATM (Q13315 whole entry): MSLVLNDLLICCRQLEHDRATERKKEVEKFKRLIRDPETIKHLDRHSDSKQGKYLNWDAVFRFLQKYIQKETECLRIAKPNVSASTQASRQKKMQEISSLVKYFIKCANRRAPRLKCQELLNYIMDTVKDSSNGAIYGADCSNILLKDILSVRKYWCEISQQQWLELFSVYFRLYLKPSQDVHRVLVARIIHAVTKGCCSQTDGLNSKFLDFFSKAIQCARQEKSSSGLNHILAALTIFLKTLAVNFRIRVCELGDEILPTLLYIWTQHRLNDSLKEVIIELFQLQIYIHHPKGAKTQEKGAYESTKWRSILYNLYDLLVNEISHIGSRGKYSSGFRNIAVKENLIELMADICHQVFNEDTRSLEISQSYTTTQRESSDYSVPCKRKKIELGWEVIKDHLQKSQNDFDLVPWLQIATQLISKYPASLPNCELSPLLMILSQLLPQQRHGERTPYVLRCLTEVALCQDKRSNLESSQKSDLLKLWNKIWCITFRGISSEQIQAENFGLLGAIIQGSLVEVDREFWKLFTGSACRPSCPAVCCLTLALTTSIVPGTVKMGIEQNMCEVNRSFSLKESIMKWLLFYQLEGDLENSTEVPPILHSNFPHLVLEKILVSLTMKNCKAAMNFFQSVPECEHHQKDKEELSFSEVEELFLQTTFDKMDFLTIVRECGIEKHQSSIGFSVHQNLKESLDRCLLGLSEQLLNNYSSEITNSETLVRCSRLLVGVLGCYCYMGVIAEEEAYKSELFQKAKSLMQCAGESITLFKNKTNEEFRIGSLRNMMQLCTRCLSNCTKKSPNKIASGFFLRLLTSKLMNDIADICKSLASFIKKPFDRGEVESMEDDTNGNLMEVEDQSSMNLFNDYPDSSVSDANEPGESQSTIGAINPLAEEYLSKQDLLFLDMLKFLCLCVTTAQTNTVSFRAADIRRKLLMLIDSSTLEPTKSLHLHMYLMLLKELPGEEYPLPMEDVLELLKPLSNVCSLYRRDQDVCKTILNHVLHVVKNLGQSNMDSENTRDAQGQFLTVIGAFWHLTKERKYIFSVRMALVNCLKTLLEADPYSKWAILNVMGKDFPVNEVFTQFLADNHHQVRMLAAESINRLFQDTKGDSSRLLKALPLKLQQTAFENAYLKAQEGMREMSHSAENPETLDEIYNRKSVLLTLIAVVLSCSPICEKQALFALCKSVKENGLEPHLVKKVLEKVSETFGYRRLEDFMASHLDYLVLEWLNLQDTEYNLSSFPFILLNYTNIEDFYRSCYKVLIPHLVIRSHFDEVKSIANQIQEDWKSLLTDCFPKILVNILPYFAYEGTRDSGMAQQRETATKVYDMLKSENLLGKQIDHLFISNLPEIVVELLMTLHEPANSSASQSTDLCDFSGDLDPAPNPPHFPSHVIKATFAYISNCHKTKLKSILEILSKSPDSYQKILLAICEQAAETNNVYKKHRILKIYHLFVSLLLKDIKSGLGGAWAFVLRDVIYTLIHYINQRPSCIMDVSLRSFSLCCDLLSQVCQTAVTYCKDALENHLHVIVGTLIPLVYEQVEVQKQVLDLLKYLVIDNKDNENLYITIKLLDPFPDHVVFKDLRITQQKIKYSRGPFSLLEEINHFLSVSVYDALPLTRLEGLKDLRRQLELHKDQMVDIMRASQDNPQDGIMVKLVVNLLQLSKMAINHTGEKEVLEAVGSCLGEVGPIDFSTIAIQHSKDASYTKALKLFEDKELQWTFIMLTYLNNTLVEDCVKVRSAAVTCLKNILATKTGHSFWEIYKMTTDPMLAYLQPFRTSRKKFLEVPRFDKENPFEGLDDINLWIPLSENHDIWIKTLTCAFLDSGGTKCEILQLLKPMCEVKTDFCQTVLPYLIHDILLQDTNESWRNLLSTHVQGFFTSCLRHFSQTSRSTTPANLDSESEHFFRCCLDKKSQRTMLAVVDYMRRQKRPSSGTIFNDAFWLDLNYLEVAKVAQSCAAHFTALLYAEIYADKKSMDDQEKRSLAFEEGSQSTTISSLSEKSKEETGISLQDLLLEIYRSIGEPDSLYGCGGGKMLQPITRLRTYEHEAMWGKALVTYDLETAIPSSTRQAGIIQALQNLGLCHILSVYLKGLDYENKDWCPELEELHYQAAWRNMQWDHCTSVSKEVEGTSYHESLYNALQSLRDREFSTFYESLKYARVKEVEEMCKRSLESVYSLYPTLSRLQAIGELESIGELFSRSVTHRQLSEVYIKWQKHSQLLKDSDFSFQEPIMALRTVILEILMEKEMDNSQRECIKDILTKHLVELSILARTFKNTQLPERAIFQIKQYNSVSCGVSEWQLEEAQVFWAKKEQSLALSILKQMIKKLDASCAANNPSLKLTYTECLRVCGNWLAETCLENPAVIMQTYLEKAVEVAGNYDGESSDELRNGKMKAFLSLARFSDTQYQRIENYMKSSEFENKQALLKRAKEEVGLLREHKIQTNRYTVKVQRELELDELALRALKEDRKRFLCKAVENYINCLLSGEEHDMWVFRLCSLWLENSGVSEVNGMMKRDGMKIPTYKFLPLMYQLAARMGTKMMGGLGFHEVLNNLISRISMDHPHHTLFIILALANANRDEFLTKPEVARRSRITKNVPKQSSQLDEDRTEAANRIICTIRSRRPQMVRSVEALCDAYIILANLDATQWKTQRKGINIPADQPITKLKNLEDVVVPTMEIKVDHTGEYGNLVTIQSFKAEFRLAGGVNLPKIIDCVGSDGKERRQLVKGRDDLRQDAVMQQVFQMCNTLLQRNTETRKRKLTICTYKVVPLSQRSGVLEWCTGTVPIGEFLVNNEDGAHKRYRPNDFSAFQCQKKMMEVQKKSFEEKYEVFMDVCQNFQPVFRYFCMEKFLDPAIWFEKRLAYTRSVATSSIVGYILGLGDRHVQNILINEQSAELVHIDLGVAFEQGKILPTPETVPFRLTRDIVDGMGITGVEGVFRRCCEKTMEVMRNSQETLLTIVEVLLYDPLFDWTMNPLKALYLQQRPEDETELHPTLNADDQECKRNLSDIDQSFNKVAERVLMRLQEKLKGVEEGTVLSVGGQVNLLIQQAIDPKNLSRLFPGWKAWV

By IC50 is commonly meant the concentration that inhibits the measured activity by half. A high value points to lower potency. On to `CC(C)NCCOc1ncc(-c2cc3c4c(cnc3cc2F)N(C)C(=O)C42CN(C(C)C)C2)cc1NS(=O)(=O)C(C)C` [Example 485, N-(5-(7′-Fluoro-1-isopropyl-3′-methyl-2′-oxo-2′,3′-dihydrospiro[azetidine-3,1′-pyrrolo[2,3-c]quinolin]-8′-yl)-2-(2-(isopropylamino)ethoxy)pyridin-3-yl)propane-2-sulfonamide], for which the 50% inhibitory concentration (IC50) in assay [1] (setting [3]) and in assay [2] (20 μM ATP) was 1 to 100 nM throughout.
As for `CN1C(=O)C2(CCC2)c2c1cnc1ccc(-c3cnc(OCCCN4CCCCC4)c(NS(C)(=O)=O)c3)cc21` [Example 225, N-(5-(3′-Methyl-2′-oxo-2′,3′-dihydrospiro[cyclobutane-1,1′-pyrrolo[2,3-c]quinolin]-8′-yl)-2-(3-(piperidin-1-yl)propoxy)pyridin-3-yl)methanesulfonamide], the 50% inhibitory concentration (IC50) in assay [1] (setting [4]) is 1 to 100 nM; in assay [2] (ATP 20 μM) it was under 0.5 nM.
Regarding `CN(C)CCCOc1ncc(-c2ccc3ncc4c(c3c2)C2(CCC2)C(=O)N4C)cc1NS(=O)(=O)c1cncc(C(F)(F)F)c1` [Example 141, N-(2-(3-(Dimethylamino)propoxy)-5-(3′-methyl-2′-oxo-2′,3′-dihydrospiro[cyclobulane-1,1′-pyrrolo[2,3-c]quinolin]-8′-yl)pyridin-3-yl)-5-(trifluoromethyl)pyridine-3-sulfonamide hydrochloride], the half-maximal inhibitory concentration (IC50) is 1 to 100 nM in assay [1] (setting [4]) and over 100 nM in assay [2] (ATP 20 μM).
Consider `COC1CCN(CCCOc2ncc(-c3ccc4ncc5c(c4c3)C3(CCC3)C(=O)N5C)cc2NS(C)(=O)=O)C1` (centres unmarked) [Example 283, N-(2-(3-(3-Methoxypyrrolidin-1-yl)propoxy)-5-(3′-methyl-2′-oxo-2′,3′-dihydrospiro[cyclobutane-1,1′-pyrrolo[2,3-c]quinolin]-8′-yl)pyridin-3-yl)methanesulfonamide], for which the half-maximal inhibitory concentration (IC50) in assay [1] (setting [4]) is 1 to 100 nM; in assay [2] (ATP 20 μM), 0.5 to 1 nM.
For the molecule `CN(C)CCCOc1ncc(-c2ccc3ncc4c(c3c2)C2(CN(C)C2)C(=O)N4C)cc1NS(C)(=O)=O` [Example 478, N-(5-(1,3′-Dimethyl-2′-oxo-2′,3′-dihydrospiro[azetidine-3,1′-pyrrolo[2,3-c]quinolin]-8′-yl)-2-(3-(dimethylamino)propoxy)pyridin-3-yl)methanesulfonamide], the half-inhibitory concentration (IC50) in assay [1] (setting [3]) and in assay [2] (20 μM ATP) was 1 to 100 nM throughout.
For `CN1C(=O)C2(CCC2)c2c1cnc1cc(F)c(-c3cnc(N4CCC(N5CCCCC5)CC4)c(NS(C)(=O)=O)c3)cc21` [Example 358, N-(2-([1,4-Bipiperidin]-1′-yl)-5-(7′-fluoro-3′-methyl-2′-oxo-2′,3′-dihydrospiro[cyclobutane-1,1′-pyrrolo[2,3-c]quinolin]-8′-yl)pyridin-3-yl)methanesulfonamide hydrochloride], the half-maximal inhibitory concentration (IC50) in assay [1] (setting [3]) is 0.5 to 1 nM; in assay [2] (20 μM ATP) it was 1 to 100 nM.
Consider `CN1C(=O)C2(CC2)c2c1cnc1ccc(-c3cnc(OCCC4CCCCN4C)c(NS(=O)(=O)c4ccccc4)c3)cc21` (centres unmarked) [Example 81, N-(5-(3′-Methyl-2′-oxo-2′,3′-dihydrospiro [cyclopropane-1,1′-pyrrolo[2,3-c]quinolin]-8′-yl)-2-(2-(1-methylpiperidin-2-yl)ethoxy)pyridin-3-yl)benzenesulfonamide], for which the IC50 in assay [1] (setting [4]) and in assay [2] (ATP 20 μM) was 1 to 100 nM in each case.
`Cc1cc(S(=O)(=O)Nc2cc(-c3ccc4ncc5c(c4c3)C3(CCC3)C(=O)N5C)cnc2OCCCN2CCCCC2)sn1` [Example 194, 3-Methyl-N-(5-(3′-methyl-2′-oxo-2′,3′-dihydrospiro[cyclobutane-1,1′-pyrrolo[2,3-c]quinolin]-8′-yl)-2-(3-(piperidin-1-yl)propoxy)pyridin-3-yl)isothiazole-5-sulfonamide hydrochloride]: the 50% inhibitory concentration (IC50) was 1 to 100 nM in assay [1] (setting [4]) and under 0.5 nM in assay [2] (ATP 20 μM).
For the molecule `CN(C)CCCOc1ncc(-c2ccc3ncc4c(c3c2)C2(CCC2)C(=O)N4C)cc1NS(=O)(=O)N1CCNCC1` [Example 177, N-(2-(3-(Dimethylamino)propoxy)-5-(3′-methyl-2′-oxo-2′,3′-dihydrospiro [cyclobutane-1,1′-pyrrolo[2,3-c]quinolin]-8′-yl)pyridin-3-yl)piperazine-1-sulfonamide], the IC50 in assay [1] (setting [4]) is 1 to 100 nM; in assay [2] (ATP 20 μM), under 0.5 nM.
With `CN1C(=O)C2(CCC2)c2c1cnc1ccc(-c3cnc(OCCCN4CCOCC4)c(NS(=O)(=O)C4CC4)c3)cc21` [Example 306, N-(5-(3′-Methyl-2′-oxo-2′,3′-dihydrospiro[cyclobutane-1,1′-pyrrolo[2,3-c]quinolin]-8′-yl)-2-(3-morpholinopropoxy)pyridin-3-yl)cyclopropanesulfonamide], the concentration for half-maximal inhibition (IC50) in assay [1] (setting [4]) and in assay [2] (ATP 20 μM) was 1 to 100 nM in each case.
Regarding `CN1C(=O)C2(CCC2)c2c1cnc1ccc(-c3cnc(OCCCN4CCCCC4)c(NS(=O)(=O)c4ccccc4)c3)cc21` [Example 132, N-(5-(3′-Methyl-2′-oxo-2′,3′-dihydrospiro[cyclobulane-1,1′-pyrrolo[2,3-c]quinolin]-8′-yl)-2-(3-(piperidin-1-yl)propoxy)pyridin-3-yl)benzenesulfonamide hydrochloride], the 50% inhibitory concentration (IC50) in assay [1] (setting [4]) and in assay [2] (ATP 20 μM) was 1 to 100 nM throughout.
With `CC(C)NCCOc1ncc(-c2cc3c4c(cnc3cc2F)N(C)C(=O)C42CN(c3ccc(OC(F)(F)F)cc3)C2)cc1NS(C)(=O)=O` [Example 541, N-(5-(7′-Fluoro-3′-methyl-2′-oxo-1-(4-(trifluoromethoxy)phenyl)-2′,3′-dihydrospiro[azetidine-3,1′-pyrrolo[2,3-c]quinolin]-8′-yl)-2-(2-(isopropylamino)ethoxy)pyridin-3-yl)methanesulfonamide], the IC50 in assay [1] (setting [3]) and in assay [2] (20 μM ATP) was 1 to 100 nM in each case.
On to `CN(C)CC(O)COc1ncc(-c2ccc3ncc4c(c3c2)C2(CCC2)C(=O)N4C)cc1NS(C)(=O)=O` (centres unmarked) [Example 295, N-(2-(3-(Dimethylamino)-2-hydroxypropoxy)-5-(3′-methyl-2′-oxo-2′,3′-dihydrospiro[cyclobutane-1,1′-pyrrolo[2,3-c]quinolin]-8′-yl)pyridin-3-yl)methanesulfonamide], for which the figures for the IC50 in assay [1] (setting [4]) and in assay [2] (ATP 20 μM) were 1 to 100 nM and 0.5 to 1 nM, respectively.
For `CN(C)CCCOc1ncc(-c2ccc3ncc4c(c3c2)C2(CC2)C(=O)N4C)cc1NS(=O)(=O)c1ccc(F)c(C#N)c1` [Example 111, 3-Cyano-N-(2-(3-(dimethylamino)propoxy)-5-(3′-methyl-2′-oxo-2′,3′-dihydrospiro [cyclopropane-1,1′-pyrrolo[2,3-c]quinolin]-8′-yl)pyridin-3-yl)-4-fluorobenzenesulfonamide] the same measures were 1 to 100 nM and under 0.5 nM.
Regarding `CN1C(=O)C2(CCC2)c2c1cnc1ccc(-c3cnc(N4CCC(N5CCOCC5)CC4)c(NS(=O)(=O)N(C)C)c3)cc21` [Example 355, 8′-{5-[(Dimethylsulfamoyl)amino]-6-[4-(morpholin-4-yl)piperidin-1-yl]pyridin-3-yl}-3′-methyl-2′,3′-dihydrospiro[cyclobutane-1,1′-pyrrolo[2,3-c]quinoline]-2′-one], the half-maximal inhibitory concentration (IC50) in assay [1] (setting [3]) and in assay [2] (20 μM ATP) was 1 to 100 nM in each case.
Turning to `CC(C)NCCOc1ncc(-c2cc3c(cc2F)ncc2c3[C@]3(C[C@@H](c4ccccn4)C3)C(=O)N2C)cc1NS(C)(=O)=O` [Example 435, trans-N-(5-(7′-Fluoro-3′-methyl-2′-oxo-3-(pyridin-2-yl)-2′,3′-dihydrospiro[cyclobutane-1,1′-pyrrolo[2,3-c]quinolin]-8′-yl)-2-(2-(isopropylamino)ethoxy)pyridin-3-yl)methanesulfonamide], the half-maximal inhibitory concentration (IC50) in assay [1] (setting [3]) was over 100 nM; in assay [2] (20 μM ATP) it was 1 to 100 nM.

The values above are taken from patent publication US12187742B2 (XRAD Therapeutics, Inc., priority 2018, dated 2025).
